Data as given in ChEMBL document CHEMBL4428037 (J Med Chem, 2016).
The source made the active and inactive calls. No cut-off for these calls is given here.

Key:
HeLa = test: Growth inhibition of human HeLa cells incubated for 72 hrs by MTT assay; format: functional, cell-based
MCF7 = test: cells; conditions: Homo sapiens, MCF7, 72 h
PC-3 = test: Growth inhibition of human PC3 cells incubated for 72 hrs by MTT assay; format: functional, cell-based; conditions: PC-3, 72 h
HepG2 = test: Growth inhibition of human HepG2 cells incubated for 72 hrs by MTT assay; format: functional, cell-based; conditions: HepG2, 72 h
A549 [1] = test: Induction of apoptosis in human A549 cells assessed as early apoptotic cells level at 40 nM incubated for 24 hrs by Annexin V-FITC/PI staining based FACS flow cytometry (reference value: 0.65%); format: functional
A549 [2] = test: Induction of apoptosis in human A549 cells assessed as late apoptotic cells level at 40 nM incubated for 24 hrs by Annexin V-FITC/PI staining based FACS flow cytometry (reference value: 2.15%); format: functional
[3] = target: T1, Tubulin alpha (Homo sapiens) (UniProt P0DPH7+P68366+Q71U36+P68363+Q9BQE3+Q6PEY2+A6NHL2+Q9NY65); test: Inhibition of alpha tubulin polymerization in human A549 cells assessed as induction of microtubule network dis-organization at 40 nM by Immunofluorescent staining based fluorescence microscopy; format: cell-based
A549 [4] = test: Induction of apoptosis in human A549 cells assessed as induction of cytoplasmic membrane blebbing at 40 nM incubated for 24 hrs microscopy; format: functional, cell-based
A549 [5] = test: Induction of apoptosis in human A549 cells assessed as necrotic cells level at 40 nM incubated for 24 hrs by Annexin V-FITC/PI staining based FACS flow cytometry (reference value: 0.37%); format: functional
A549 [6] = test: Growth inhibition of human A549 cells incubated for 48 hrs by MTT assay; format: functional, cell-based; conditions: A549, 48 h
[7] = target: T1, Tubulin alpha (Homo sapiens); test: Inhibition of alpha tubulin polymerization in human A549 cells assessed as induction of cell border shrinkage of microtubules at 40 nM by Immunofluorescent staining based fluorescence microscopy
A549 [8] = test: Induction of apoptosis in human A549 cells assessed as live cells level at 40 nM incubated for 24 hrs by Annexin V-FITC/PI staining based FACS flow cytometry (reference value: 96.83%); format: functional
A549 [9] = test: Induction of apoptosis in human A549 cells assessed as induction of cell shrinkage at 40 nM incubated for 24 hrs microscopy; format: functional, cell-based
A549 [10] = test: Induction of cell cycle arrest in human A549 cells assessed as accumulation at G2/M phase at 40 nM incubated for 24 hrs by propidium iodide staining based FACS flow cytometry; format: functional
A549 [11] = test: Induction of apoptosis in human A549 cells assessed as induction of chromatin condensation at 40 nM incubated for 24 hrs microscopy; format: functional, cell-based
A549 [12] = test: Induction of apoptosis in human A549 cells assessed as induction of nucleus fragmentation at 40 nM incubated for 24 hrs microscopy; format: functional, cell-based
NCI-H460 = test: Growth inhibition of human NCI-H460 cells incubated for 48 hrs by MTT assay; format: functional, cell-based; conditions: NCI-H460, 48 h
Tubulin = Tubulin (Sus scrofa, UniProt P02554+P02550); test: (§1) Inhibition of porcine brain tubulin polymerization incubated for 60 mins by fluorescence-based assay
Tubulin (Sus scrofa) [13] = target: T2, Tubulin (Sus scrofa) (UniProt P02554+P02550); test: Displacement of [3H]colchicine from biotinylated porcine tubulin at 5 uM incubated for 2 hrs by competition scintillation proximity; format: protein assay
Tubulin (Sus scrofa) [14] = target: T2, Tubulin (Sus scrofa); test: Displacement of [3H]colchicine from biotinylated porcine tubulin at 1 uM incubated for 2 hrs by competition scintillation proximity; format: protein assay
Tubulin (Sus scrofa) [15] = target: T2, Tubulin (Sus scrofa); test: as §1

CCOc1cccc(Nc2nn(C)c3c2Cc2cc(OCC)c(OCC(=O)NC)cc2-3)c1
IC50 (HeLa): 90 nM | IC50 (MCF7): 892 nM | IC50 (PC-3): 640 nM | IC50 (HepG2): 142 nM

CCOc1cccc(Nc2nn(C)c3c2Cc2cc(OCC)c(OCC(=O)NCCO)cc2-3)c1
IC50 (HeLa): 415 nM | IC50 (MCF7): 662 nM | IC50 (PC-3): 3680 nM | IC50 (HepG2): 1800 nM

COc1cc2c(c(OC)c1OC)-c1ccc(OC)c(=O)cc1[C@@H](NC(C)=O)CC2 [COLCHICINE]
IC50 (HeLa): 7.6 nM | Activity (A549 [1]): 8.38% | Activity (A549 [2]): 5.89% | inhibition [3]: Active | IC50 (MCF7): 47 nM | Activity (A549 [4]): Active | Activity (A549 [5]): 1.14% | IC50 (A549 [6]): 59.1 nM | inhibition [7]: Active | IC50 (HepG2): 19 nM | Activity (A549 [8]): 84.59% | Activity (A549 [9]): Active | Activity (A549 [10]): 37% | Activity (A549 [11]): Active | Activity (A549 [12]): Active | IC50 (NCI-H460): 49.3 nM

CCOc1cccc(Nc2nn(C)c3c2Cc2cc(OCC)c(OCC(=O)NCCN(C)C)cc2-3)c1
IC50 (HeLa): 375 nM | IC50 (MCF7): 2990 nM | IC50 (PC-3): 460 nM | IC50 (HepG2): 340 nM

CCOc1cccc(Nc2nn(C)c3c2Cc2cc(OCC)c(OCC(=O)N(C)C)cc2-3)c1
IC50 (HeLa): 720 nM | IC50 (MCF7): 6160 nM | IC50 (PC-3): 1780 nM | IC50 (HepG2): 920 nM

CC(=O)O[C@H]1C(=O)[C@@]2(C)[C@H]([C@H](OC(=O)c3ccccc3)[C@]3(O)C[C@H](OC(=O)[C@H](O)[C@@H](NC(=O)c4ccccc4)c4ccccc4)C(C)=C1C3(C)C)[C@]1(OC(C)=O)CO[C@@H]1C[C@@H]2O [PACLITAXEL]
IC50 (HeLa): 18 nM | IC50 (PC-3): 21 nM

CCOc1cccc(Nc2nn(C)c3c2Cc2cc(OCC)c(OCC(=O)NCCN)cc2-3)c1
IC50 (HeLa): 865 nM | IC50 (MCF7): 1850 nM | IC50 (PC-3): 1520 nM | IC50 (HepG2): 1400 nM

CCOc1cccc(Nc2nn(C)c3c2Cc2cc(OCC)c(OCC(=O)NCCOC)cc2-3)c1
IC50 (HeLa): 490 nM | IC50 (MCF7): 1530 nM | IC50 (PC-3): 800 nM | IC50 (HepG2): 447 nM

COc1ccc(S(=O)(=O)Nc2cccnc2Nc2ccc(O)cc2)cc1 [ABT-751]
IC50 (HeLa): 355 nM | IC50 (MCF7): 3790 nM | IC50 (PC-3): 460 nM | IC50 (HepG2): 447 nM | IC50 (Tubulin): 2790 nM | inhibition (Tubulin (Sus scrofa) [13]): 68% | inhibition (Tubulin (Sus scrofa) [14]): 39%

C#CCNC(=O)COc1cc2c(cc1OCC)Cc1c(Nc3cccc(OCC)c3)nn(C)c1-2
IC50 (HeLa): 505 nM | IC50 (MCF7): 2110 nM | IC50 (PC-3): 1780 nM | IC50 (HepG2): 587 nM

CCOc1cccc(Nc2nn(C)c3c2Cc2cc(OCC)c(OCC(=O)NC4CC4)cc2-3)c1
IC50 (HeLa): 720 nM | IC50 (MCF7): 3070 nM | IC50 (PC-3): 1400 nM | IC50 (HepG2): 653 nM

CCOc1cccc(Nc2nn(C)c3c2Cc2cc(OCC)c(OCC(=O)NO)cc2-3)c1
IC50 (HeLa): 13.2 nM | IC50 (MCF7): 33.5 nM | IC50 (PC-3): 23.5 nM | IC50 (HepG2): 16.4 nM | inhibition (Tubulin (Sus scrofa) [15]): Dose-dependent effect | IC50 (Tubulin): 5330 nM | inhibition (Tubulin (Sus scrofa) [13]): 63% | inhibition (Tubulin (Sus scrofa) [14]): 31%

CCOc1cccc(Nc2nn(C)c3c2Cc2cc(OCC)c(OCC(=O)NN)cc2-3)c1
IC50 (HeLa): 350 nM | IC50 (MCF7): 579 nM | IC50 (PC-3): 760 nM | IC50 (HepG2): 400 nM

CCNC(=O)COc1cc2c(cc1OCC)Cc1c(Nc3cccc(OCC)c3)nn(C)c1-2
IC50 (HeLa): 623 nM | IC50 (MCF7): 1470 nM | IC50 (PC-3): 3740 nM | IC50 (HepG2): 1310 nM

C=CCNC(=O)COc1cc2c(cc1OCC)Cc1c(Nc3cccc(OCC)c3)nn(C)c1-2
IC50 (HeLa): 690 nM | IC50 (MCF7): 765 nM | IC50 (PC-3): 1940 nM | IC50 (HepG2): 853 nM

CCOc1cccc(Nc2nn(C)c3c2Cc2cc(OCC)c(OCC(=O)NCCC#N)cc2-3)c1
IC50 (HeLa): 1450 nM | IC50 (MCF7): 4610 nM | IC50 (PC-3): 8600 nM | IC50 (HepG2): 2420 nM

CCOc1cccc(Nc2nn(C)c3c2Cc2cc(OCC)c(OCC(=O)NCC4CC4)cc2-3)c1
IC50 (HeLa): 3200 nM | IC50 (MCF7): > 50000 nM | IC50 (PC-3): 4600 nM | IC50 (HepG2): 1700 nM

COc1ccc(/C=C\c2cc(OC)c(OC)c(OC)c2)cc1O [COMBRETASTATIN A4]
IC50 (MCF7): 12.5 nM | IC50 (A549 [6]): 49 nM | IC50 (PC-3): 3.4 nM | IC50 (HepG2): 2.1 nM | inhibition (Tubulin (Sus scrofa) [13]): 92% | IC50 (NCI-H460): 35.8 nM

CCOc1cccc(Nc2nn(C)c3c2Cc2cc(OCC)c(OCC(=O)NOC)cc2-3)c1
IC50 (HeLa): 470 nM | IC50 (MCF7): 1670 nM | IC50 (PC-3): 2900 nM | IC50 (HepG2): 853 nM
